pIC50: −log10 of the molar value. “Also recorded” adds a separate entry of the source. Values belong to the compound of their own block, whether it stands above or below them.
Legend:
[1] = target: T1, human Edg-4 receptor (Homo sapiens, UniProt Q9HBW0); assay: Calcium mobilization assay (FLIPR), HTC rat hepatoma cells transfected with human Edg-4; assay type: cell-based; conditions: for potency relative to compound 101: dose response curve, FIG. 2; for inhibition of LPA-induced calcium mobilization, human Edg-4: clonal HTC cell line, FIG. 11
T1 construct: IC50 Edg-4; other: agonist, calcium mobilization; potency relative to compound 101; calcium response (agonist)
From the text: (§1) LPA receptors such as Edg-4, couple to calcium effector pathways, and result in increases in intracellular calcium following receptor activation (An et al., Molecular Pharmacology, 54:881-888, 1998, incorporated herein by reference). This biological response lends itself to a very efficient, high-throughput screen using a Fluorescence Imaging Plate Reader (FLIPR; Molecular Devices, Sunnyvale, Calif.). The FLIPR system is a real-time, cell-based assay system with continuous fluorescence detection using a cooled CCD camera. The FLIPR system was used to developing an Edg-4 receptor screen. Rat hepatoma cells stably expressing Edg-4 receptor were plated on 384-well plates and loaded with a calcium dye loading kit (Molecular Devices, Sunnyvale, Calif.) for 1 hour at room temperature. Cells were then placed on the FLIPR^354 (Molecular Devices, Sunnyvale, Calif.) and excited by an argon laser at 488 nm. The data for the entire 384-well plate was updated every second. An integrated robotic pipettor allowed for simultaneous compound addition into each individual well in the plate.

[2] = test system: rat Edg-4 receptor; assay: LPA induced calcium mobilization, HTC cells transfected with pooled rat Edg-4 clones; assay type: cell-based; conditions: pooled HTC population, FIG. 12
From the text: as §1

[3] = target: T2, mouse Edg-4 receptor (Mus musculus, UniProt Q9JL06); assay: LPA induced calcium mobilization, HTC cells transfected with pooled mouse Edg-4 clones; assay type: cell-based; conditions: pooled HTC population, FIG. 13
T2 construct: expressed in transfected cells; host or cells: HTC rat hepatoma cells, pooled population
From the text: as §1

[4] = test system: CaOV3 human ovarian cancer cells; assay: Migration assay, LPA stimulated chemotaxis; assay type: cell-based; conditions: CaOV3, FIG. 9
Description: (§2) Cells were plated in a 24 well format using Fluoroblok filter insert plates ([…]) or Fluoroblok matrigel coated filter insert plates (Becton Dickinson, San Diego, Calif.). The assay was a modified Boyden Chamber assay in which a cell suspension (1 ×10^5 cells/ml) was prepared in serum free medium and added to the top chamber. LPA or SIP (doses ranged from 0.1-10 μM in serum free medium) was added to the bottom chamber. Following a 20-24 hour incubation period, the number of cells migrating or invading into the lower chamber was quantitated by transferring the filter insert into a fresh 24-well plate containing 4 μg/ml calcein AM (Molecular Probes, Sunnyvale, Calif.) in Hank's Balanced Salt Solution and staining for one hour.
(§3) Detection was via fluorescent readout at 450 nm excitation/530 nm emission using a fluorimeter. The level of fluorescence correlated with cell number.
For most cells types, no further manipulation was required. For CaOV3 human ovarian cancer cells, however, it was necessary that the cells be serum starved overnight prior to preparing the cell suspension. In addition, the filter inserts were coated with a solution of 1 mg/ml rat-tail Collagen I (BD, SanDiego, Calif.).

[5] = target: T3, Edg-2 (Homo sapiens, UniProt Q92633); assay: Calcium mobilization assay (FLIPR), HTC cells expressing Edg 2; assay type: cell-based; conditions: inhibition
T3 construct: expressed in transfected cells; host or cells: HTC rat hepatoma cells (from the earlier reading)

[6] = test system: HUVEC cells; assay: Migration assay, SIP induced chemotaxis; assay type: cell-based, human; conditions: FIG. 10
Description: as §2, §3

[7] = target: T4, Edg-3 (Homo sapiens, UniProt Q99500); assay: Calcium mobilization assay (FLIPR), HTC cells expressing Edg 3; assay type: cell-based; conditions: inhibition
T4 construct: expressed in transfected cells; host or cells: HTC rat hepatoma cells (from the earlier reading)

[8] = target: T5, Edg-1 (Homo sapiens, UniProt P21453); assay: Calcium mobilization assay (FLIPR), HTC cells expressing Edg 1; assay type: cell-based; conditions: inhibition
T5 construct: expressed in transfected cells; host or cells: HTC rat hepatoma cells (from the earlier reading)

[9] = test system: human Edg-4 receptor; assay: Calcium mobilization assay (FLIPR), HTC rat hepatoma cells transfected with human Edg-4; assay type: cell-based; conditions: antagonists; Edg-4 relative to other Edg receptors
From the text: as §1

[10] = target: T6, Edg-7 (Homo sapiens, UniProt Q9UBY5); assay: Calcium mobilization assay (FLIPR), HTC cells expressing Edg 7; assay type: cell-based; conditions: inhibition, calcium mobilization
T6 construct: expressed in transfected cells; host or cells: HTC rat hepatoma cells (from the earlier reading)
T6 sequence (Q9UBY5 1-353): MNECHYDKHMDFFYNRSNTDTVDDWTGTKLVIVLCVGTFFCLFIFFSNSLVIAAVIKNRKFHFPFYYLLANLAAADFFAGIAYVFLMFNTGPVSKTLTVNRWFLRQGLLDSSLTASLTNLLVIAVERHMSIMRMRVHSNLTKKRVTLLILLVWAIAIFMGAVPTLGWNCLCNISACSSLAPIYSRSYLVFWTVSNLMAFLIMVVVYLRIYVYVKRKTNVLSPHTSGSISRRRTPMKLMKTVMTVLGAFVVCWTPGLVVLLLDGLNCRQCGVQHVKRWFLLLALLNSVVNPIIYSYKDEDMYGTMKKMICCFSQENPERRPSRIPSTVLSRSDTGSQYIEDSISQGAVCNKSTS

[11] = target: T7, Edg-8 (Homo sapiens, UniProt Q9H228); assay: Calcium mobilization assay (FLIPR), HTC cells expressing Edg 8; assay type: cell-based; conditions: inhibition
T7 construct: expressed in transfected cells; host or cells: HTC rat hepatoma cells (from the earlier reading)

[12] = target: T8, Edg-5 (Homo sapiens, UniProt O95136); assay: Calcium mobilization assay (FLIPR), HTC cells expressing Edg 5; assay type: cell-based; conditions: inhibition
T8 construct: expressed in transfected cells; host or cells: HTC rat hepatoma cells (from the earlier reading)

[13] = target: T9, Edg-6 (Homo sapiens, UniProt O95977); assay: Calcium mobilization assay (FLIPR), HTC cells expressing Edg 6; assay type: cell-based; conditions: inhibition
T9 construct: expressed in transfected cells; host or cells: HTC rat hepatoma cells (from the earlier reading)
T9 sequence (O95977 1-384): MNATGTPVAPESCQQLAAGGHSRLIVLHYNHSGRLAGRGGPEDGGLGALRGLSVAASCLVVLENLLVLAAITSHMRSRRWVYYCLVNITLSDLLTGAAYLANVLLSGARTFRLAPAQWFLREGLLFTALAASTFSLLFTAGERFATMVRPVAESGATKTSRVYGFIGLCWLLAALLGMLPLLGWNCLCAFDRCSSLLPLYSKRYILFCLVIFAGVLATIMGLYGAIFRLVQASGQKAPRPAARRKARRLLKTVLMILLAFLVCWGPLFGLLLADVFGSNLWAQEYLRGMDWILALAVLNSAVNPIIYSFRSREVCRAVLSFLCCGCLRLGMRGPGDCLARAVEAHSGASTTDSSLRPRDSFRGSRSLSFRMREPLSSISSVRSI

[14] = target: T10, PLA2-II (Crotalus atrox, UniProt P00624); assay: Enzyme assay Phospholipase PLA2-II; assay type: biochemical; conditions: 300 μM; significance >50%
T10 construct: Source: Crotalus atrox; from tissue
T10 sequence (P00624 17-138): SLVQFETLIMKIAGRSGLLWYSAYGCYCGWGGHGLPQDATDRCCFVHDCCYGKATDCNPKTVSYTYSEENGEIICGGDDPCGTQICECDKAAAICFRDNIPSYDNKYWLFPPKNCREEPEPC
Description: 8. Phospholipase PLA2-II (Katsumata et al., 1986, Anal. Biochem. 154:676-681).
Substrate: 0.03 μCi 1 -Palmitoyl-2-[1-^14C]oleoyl-3-phosphatidylcholine
Pre-Incubation Time/Temp: 5 minutes at 37° C.
Incubation Time/Temp: 5 minutes at 37° C.
Incubation Buffer: 0.1M glycine-NaOH, […], pH 9.0
Quantitation Method: Quantitation of [^14C]oleate
Significance Criteria: >50% of max stimulation or inhibition

[15] = target: T11, Potassium channel [KATP] (Cricetus cricetus, UniProt Q09427); assay: Radioligand binding Potassium Channel [KATP]; set-up: species or system Syrian hamster; conditions: 10 μM; significance ≧50%
T11 construct: endogenous in cells; host or cells: HIT-T15 Syrian hamster pancreatic beta cells
Description: Source: Syrian hamster pancreatic beta cells HIT-T15
Ligand: 5 nM ^3H Glyburide
Incubation Time/Temp: 2 hours at 25° C.
Incubation Buffer: 50 mM MOPS, 0.1 mM CaCl2, pH 7.4
NonSpecific Ligand: 10 μM Glyburide
Quantitation Method: Radioligand Binding
Significance Criteria: ≧50% of max stimulation or inhibition

[16] = target: T12, PLC (Bacillus cereus, UniProt P09598); assay: Enzyme assay Phospholipase PLC; assay type: biochemical; conditions: 10 μM
T12 construct: Source: Bacillus cereus; host or cells: Bacillus cereus
Description: 9. Phospholipase PLC (Hergenrother et al, 1995, Anal. Biochem. 229:313-316).
Substrate: 400 μM 1,2-Dihexanoyl sn-glycerol-3-phosphocholine
Pre-Incubation Time/Temp: 10 minutes at 37° C.
Incubation Time/Temp: 5 minutes at 37 ° C.
Incubation Buffer: 0.1 M 3,3-dimethylglutaric acid, pH 7.3
Quantitation Method: Spectrophotometric quantitation of phosphorylcholine

T1 sequence (Q9HBW0 1-340 limits assumed): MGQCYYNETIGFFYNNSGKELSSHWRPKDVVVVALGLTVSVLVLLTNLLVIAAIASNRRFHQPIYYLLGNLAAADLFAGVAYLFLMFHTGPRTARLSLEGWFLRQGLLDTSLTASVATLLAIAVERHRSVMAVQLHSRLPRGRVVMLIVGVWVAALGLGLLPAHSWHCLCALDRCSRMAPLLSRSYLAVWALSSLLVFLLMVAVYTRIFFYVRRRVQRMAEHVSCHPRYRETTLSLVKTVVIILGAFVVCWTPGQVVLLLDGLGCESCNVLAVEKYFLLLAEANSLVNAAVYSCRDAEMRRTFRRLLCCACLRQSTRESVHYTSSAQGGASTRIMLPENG
T2 sequence (Q9JL06 whole entry): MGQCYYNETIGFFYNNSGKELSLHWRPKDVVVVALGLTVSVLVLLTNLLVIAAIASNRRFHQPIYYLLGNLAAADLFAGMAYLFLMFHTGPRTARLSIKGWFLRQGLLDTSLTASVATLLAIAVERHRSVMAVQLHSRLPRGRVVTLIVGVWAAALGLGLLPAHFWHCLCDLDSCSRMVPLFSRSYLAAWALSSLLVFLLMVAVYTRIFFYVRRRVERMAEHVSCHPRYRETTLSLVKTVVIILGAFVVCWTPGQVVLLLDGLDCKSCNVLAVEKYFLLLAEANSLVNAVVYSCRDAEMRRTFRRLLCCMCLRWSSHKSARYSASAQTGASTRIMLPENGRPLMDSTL
T11 sequence (Q09427 whole entry): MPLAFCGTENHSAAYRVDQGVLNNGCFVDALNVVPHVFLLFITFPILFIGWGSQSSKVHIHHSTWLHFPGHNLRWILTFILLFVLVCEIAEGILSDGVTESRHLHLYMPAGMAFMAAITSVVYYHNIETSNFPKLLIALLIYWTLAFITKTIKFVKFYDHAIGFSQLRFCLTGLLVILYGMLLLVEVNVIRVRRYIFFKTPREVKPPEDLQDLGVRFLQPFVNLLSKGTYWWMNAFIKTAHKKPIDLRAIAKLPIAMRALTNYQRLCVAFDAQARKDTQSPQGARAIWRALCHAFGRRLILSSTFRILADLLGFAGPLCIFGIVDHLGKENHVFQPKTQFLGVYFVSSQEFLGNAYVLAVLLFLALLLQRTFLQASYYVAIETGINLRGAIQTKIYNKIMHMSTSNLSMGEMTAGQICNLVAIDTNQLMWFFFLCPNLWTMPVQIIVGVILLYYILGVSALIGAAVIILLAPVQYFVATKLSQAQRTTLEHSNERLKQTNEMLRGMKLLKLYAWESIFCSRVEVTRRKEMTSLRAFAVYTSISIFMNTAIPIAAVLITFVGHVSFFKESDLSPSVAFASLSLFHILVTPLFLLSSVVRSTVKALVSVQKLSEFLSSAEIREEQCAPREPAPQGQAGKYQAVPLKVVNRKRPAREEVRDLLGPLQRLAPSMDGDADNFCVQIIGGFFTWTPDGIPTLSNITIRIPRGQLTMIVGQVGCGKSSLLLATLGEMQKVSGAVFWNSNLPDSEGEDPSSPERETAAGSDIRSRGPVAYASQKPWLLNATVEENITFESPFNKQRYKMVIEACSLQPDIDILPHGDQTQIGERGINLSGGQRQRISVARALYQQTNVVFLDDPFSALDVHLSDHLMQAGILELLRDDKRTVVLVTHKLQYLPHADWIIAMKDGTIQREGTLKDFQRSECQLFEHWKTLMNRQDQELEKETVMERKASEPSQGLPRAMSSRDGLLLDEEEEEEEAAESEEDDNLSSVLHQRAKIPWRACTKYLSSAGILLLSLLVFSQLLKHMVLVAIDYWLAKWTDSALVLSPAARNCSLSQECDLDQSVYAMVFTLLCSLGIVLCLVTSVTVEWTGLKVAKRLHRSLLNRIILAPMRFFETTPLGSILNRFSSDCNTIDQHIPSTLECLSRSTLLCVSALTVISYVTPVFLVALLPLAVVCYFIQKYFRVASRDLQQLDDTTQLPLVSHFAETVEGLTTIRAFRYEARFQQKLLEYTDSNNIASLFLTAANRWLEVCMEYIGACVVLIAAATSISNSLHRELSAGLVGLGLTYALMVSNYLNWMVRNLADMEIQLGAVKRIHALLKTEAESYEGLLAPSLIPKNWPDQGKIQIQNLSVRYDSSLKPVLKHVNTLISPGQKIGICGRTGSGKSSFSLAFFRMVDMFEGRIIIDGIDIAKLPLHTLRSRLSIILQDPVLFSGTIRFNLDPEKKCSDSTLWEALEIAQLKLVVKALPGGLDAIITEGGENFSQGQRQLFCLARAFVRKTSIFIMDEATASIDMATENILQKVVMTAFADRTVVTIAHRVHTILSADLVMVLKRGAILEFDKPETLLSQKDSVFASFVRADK
T8 sequence (O95136 whole entry): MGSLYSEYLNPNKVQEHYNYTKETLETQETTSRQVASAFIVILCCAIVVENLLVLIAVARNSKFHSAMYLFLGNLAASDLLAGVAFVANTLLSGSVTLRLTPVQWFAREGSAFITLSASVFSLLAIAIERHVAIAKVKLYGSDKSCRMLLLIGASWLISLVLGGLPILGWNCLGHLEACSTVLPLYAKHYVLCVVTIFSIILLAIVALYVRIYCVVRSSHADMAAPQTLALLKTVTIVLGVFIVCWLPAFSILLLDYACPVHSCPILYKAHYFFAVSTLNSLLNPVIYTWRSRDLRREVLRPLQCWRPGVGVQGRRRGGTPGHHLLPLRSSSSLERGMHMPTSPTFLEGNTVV
T3 sequence (Q92633 whole entry): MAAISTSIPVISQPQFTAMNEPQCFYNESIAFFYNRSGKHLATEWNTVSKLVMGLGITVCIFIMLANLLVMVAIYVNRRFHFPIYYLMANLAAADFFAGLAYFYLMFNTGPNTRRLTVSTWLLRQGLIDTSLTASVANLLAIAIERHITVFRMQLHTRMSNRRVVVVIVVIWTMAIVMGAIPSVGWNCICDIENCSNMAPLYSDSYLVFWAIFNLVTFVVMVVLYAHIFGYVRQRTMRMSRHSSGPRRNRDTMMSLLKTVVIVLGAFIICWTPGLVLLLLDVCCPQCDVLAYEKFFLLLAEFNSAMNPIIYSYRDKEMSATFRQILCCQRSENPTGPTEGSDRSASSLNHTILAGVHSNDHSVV
T7 sequence (Q9H228 whole entry): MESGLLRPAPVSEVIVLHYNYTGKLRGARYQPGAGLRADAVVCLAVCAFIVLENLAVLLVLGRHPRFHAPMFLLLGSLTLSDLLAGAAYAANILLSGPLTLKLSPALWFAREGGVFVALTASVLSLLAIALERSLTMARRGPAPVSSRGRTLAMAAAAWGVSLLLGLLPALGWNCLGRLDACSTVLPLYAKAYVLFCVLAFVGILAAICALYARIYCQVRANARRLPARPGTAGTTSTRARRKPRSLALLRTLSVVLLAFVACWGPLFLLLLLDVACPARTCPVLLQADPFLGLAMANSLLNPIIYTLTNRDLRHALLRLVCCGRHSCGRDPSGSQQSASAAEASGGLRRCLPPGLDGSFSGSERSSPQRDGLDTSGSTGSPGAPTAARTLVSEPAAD
T4 sequence (Q99500 whole entry): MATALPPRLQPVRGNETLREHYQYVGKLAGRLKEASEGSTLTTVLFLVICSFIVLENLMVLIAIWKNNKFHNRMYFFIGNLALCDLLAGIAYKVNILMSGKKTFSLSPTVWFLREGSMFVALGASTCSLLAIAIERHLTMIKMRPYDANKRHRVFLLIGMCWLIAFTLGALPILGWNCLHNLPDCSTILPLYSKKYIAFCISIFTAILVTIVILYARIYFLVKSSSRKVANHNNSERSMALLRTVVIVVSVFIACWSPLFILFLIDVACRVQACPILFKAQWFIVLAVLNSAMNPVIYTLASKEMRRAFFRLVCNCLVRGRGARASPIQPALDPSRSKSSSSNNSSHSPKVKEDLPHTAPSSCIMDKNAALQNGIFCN
T5 sequence (P21453 whole entry): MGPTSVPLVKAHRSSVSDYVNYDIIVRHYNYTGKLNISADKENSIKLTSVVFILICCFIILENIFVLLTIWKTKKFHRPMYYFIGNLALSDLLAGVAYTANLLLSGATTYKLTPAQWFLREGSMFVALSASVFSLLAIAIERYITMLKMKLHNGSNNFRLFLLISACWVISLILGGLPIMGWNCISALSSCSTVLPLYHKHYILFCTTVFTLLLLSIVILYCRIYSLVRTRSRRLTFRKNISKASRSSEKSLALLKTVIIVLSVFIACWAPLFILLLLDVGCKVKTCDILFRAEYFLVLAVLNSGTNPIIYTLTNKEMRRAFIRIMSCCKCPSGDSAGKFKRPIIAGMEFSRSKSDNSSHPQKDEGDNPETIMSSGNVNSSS
T12 sequence (P09598 39-283 limits assumed): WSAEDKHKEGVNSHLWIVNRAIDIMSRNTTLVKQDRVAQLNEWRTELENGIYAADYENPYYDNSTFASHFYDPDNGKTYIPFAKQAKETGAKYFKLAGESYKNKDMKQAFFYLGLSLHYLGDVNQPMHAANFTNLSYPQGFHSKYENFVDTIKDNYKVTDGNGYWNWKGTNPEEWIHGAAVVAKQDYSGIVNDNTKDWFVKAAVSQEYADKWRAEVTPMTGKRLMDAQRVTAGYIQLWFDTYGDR

potency relative to compound 101 [1]: less potent than compound 101
Compound: COc1ccc(-c2cc(NC(=O)CC(=O)C(F)(F)F)[nH]n2)cc1 [Compound 105, 4,4-4-trifluoro-N-[5-(4-methoxy-phenyl)-2-pyrazol-3-yl]-3-oxo-butyramide]

inhibition of calcium response elicited by agonist 125 ([1]; HTC cells transfected with human Edg-4, FIG. 15): inhibited
inhibition of LPA-induced calcium mobilization, human Edg-4 [1]: dose dependent inhibition
potency relative to compound 101 [1]: 2-3 fold
inhibition of LPA-induced calcium mobilization, mouse Edg-4 [3]: dose dependent inhibition
Compound: N-[5-(3,4-dichloro-phenyl)-2H-pyrazol-3-yl]4,4,4-trifluoro-3-oxo-butyramide [Compound 103]
inhibition of LPA-induced calcium mobilization, rat Edg-4 [2]: dose dependent inhibition
inhibition of LPA stimulated chemotaxis [4]: effectively blocked; also recorded: did inhibit

pIC50 [5]: < 4.70
pIC50 [7]: < 4.70
pIC50 [8]: < 4.70
Fold-selectivity for Edg-4 (IC50) [9]: >62.5
pIC50 ([1]; inhibition, calcium mobilization): 6.49
pIC50 [10]: < 4.70
pIC50 [11]: < 4.70
pIC50 [12]: < 4.70
pIC50 [13]: < 4.70
Compound: O=C(CC(=O)C(F)(F)F)Nc1cc(-c2ccc(Cl)c(Cl)c2)n[nH]1 [Compound 103, N-[5-(3,4-dichloro-phenyl)-2H-pyrazol-3-yl]4,4,4-trifluoro-3-oxo-butyramide]
inhibition of SIP induced chemotaxis [6]: did not inhibit

inhibition of LPA-induced calcium mobilization, human Edg-4 [1]: dose dependent inhibition
inhibition of LPA-induced calcium mobilization, mouse Edg-4 [3]: dose dependent inhibition
Compound: O=C(CC(=O)C(F)(F)F)Nc1cc(-c2ccc(F)cc2)n[nH]1 [Compound 107]
inhibition of LPA-induced calcium mobilization, rat Edg-4 [2]: dose dependent inhibition

Compound: O=C(CC(=O)C(F)(F)F)Nc1cc(-c2ccccc2)n[nH]1 [Compound 101, 4,4,4-trifluoro-3-oxo-N-(5-phenyl-2H-pyrazol-3-yl)-butyramide]
Fold-selectivity for Edg-4 (IC50) [9]: >29.9
activity at PLA2-II [14]: no significant activity
activity at Potassium channel [KATP] [15]: no significant activity
activity at PLC [16]: no significant activity

From patent US20050113283A1, “Methods of treating conditions associated with an EDG-4 receptor” (priority 2002, published 2005)
